Read-outs that look alike come from different tables or passages of the source.
Tests used:
CCRF-CEM = assay: SRB 48 h growth assay, Leukemia CCRF-CEM; format: cell-based, human; conditions: Homo sapiens
K-562 = assay: SRB 48 h growth assay, Leukemia K-562; format: cell-based, human
RPMI-8226 = assay: SRB 48 h growth assay, Leukemia RPMI-8226; format: cell-based, human; conditions: RPMI-8226, Leukemia; for GI50: Homo sapiens
A549/ATCC = assay: SRB 48 h growth assay, Non-small Cell Lung A549/ATCC; format: cell-based, human
HOP-62 = assay: SRB 48 h growth assay, Non-small Cell Lung HOP-62; format: cell-based, human; conditions: HOP-62, Non-small Cell Lung; for GI50: Homo sapiens
NCI-H23 = assay: SRB 48 h growth assay, Non-small Cell Lung NCI-H23; format: cell-based, human; conditions: for GI50: Homo sapiens
NCI-H522 = assay: SRB 48 h growth assay, Non-small Cell Lung NCI-H522; format: cell-based, human
M14 = assay: SRB 48 h growth assay, Melanoma M14; format: cell-based, human; conditions: for GI50: Homo sapiens
MDA-MB-435 = assay: SRB 48 h growth assay, Melanoma MDA-MB-435; format: cell-based, human; conditions: Homo sapiens, MDA-MB-435, Melanoma
UACC-62 = assay: SRB 48 h growth assay, Melanoma UACC-62; format: cell-based, human; conditions: UACC-62, Melanoma
OVCAR-4 = assay: SRB 48 h growth assay, Ovarian OVCAR-4; format: cell-based, human; conditions: OVCAR-4, Ovarian
786-0 = assay: SRB 48 h growth assay, Renal 786-0; format: cell-based, human; conditions: 786-0, Renal; for GI50: Homo sapiens
ACHN = assay: SRB 48 h growth assay, Renal ACHN; format: cell-based, human; conditions: for GI50: Homo sapiens
RXF393 = assay: SRB 48 h growth assay, Renal RXF393; format: cell-based, human
TK-10 = assay: SRB 48 h growth assay, Renal TK-10; format: cell-based, human; conditions: TK-10, Renal; for GI50: Homo sapiens
PC-3 = assay: SRB 48 h growth assay, Prostate PC-3; format: cell-based, human; conditions: PC-3, Prostate
DU-145 = assay: SRB 48 h growth assay, Prostate DU-145; format: cell-based, human; conditions: DU-145, Prostate; for GI50: Homo sapiens
MCF7 = assay: SRB 48 h growth assay, Breast MCF7; format: cell-based, human; conditions: Homo sapiens
MDA-MB-231/ATCC = assay: SRB 48 h growth assay, Breast MDA-MB-231/ATCC; format: cell-based, human
HS578T = assay: SRB 48 h growth assay, Breast HS578T; format: cell-based, human; conditions: Homo sapiens, Hs-578T
BT-549 = assay: SRB 48 h growth assay, Breast BT-549; format: cell-based, human; conditions: BT-549, Breast
[1] = test system: seven colon cancer cell line (COLO 205, HCC-2998, HCT-116, HCT-15, HT29, KM12 and SW-620); assay: in vitro anticancer activity, colon panel; format: cell-based; conditions: Homo sapiens; seven colon cancer cell lines, exposure at least 48 h; read-out: GI50, range over panel
[2] = test system: six CNS cancer cell line (SF-268, SF-295, SF-539, SNB-19, SNB-75 and U251); assay: in vitro anticancer activity, CNS panel; format: cell-based; conditions: Homo sapiens; six CNS cancer cell lines, exposure at least 48 h; read-out: GI50, range over panel
[3] = test system: seven ovarian cancer cell lines (IGROV1, OVCAR-3, OVCAR-4, OVCAR-5, OVCAR-8, NCI/ADR-RES and SK-OV-3); assay: in vitro anticancer activity, ovarian panel; format: cell-based; conditions: Homo sapiens, exposure at least 48 h, read-out: GI50, range over panel
[4] = test system: two prostate cancer cell line (PC-3, DU-145); assay: in vitro anticancer activity, prostate panel; format: cell-based; conditions: Homo sapiens; two prostate cancer cell lines, exposure at least 48 h; read-out: GI50, range over panel
[5] = test system: six breast cancer cell line (MCF-7, MDA-MB-231/ATCC, HS 578T, TD-47D, MDA-MB-468 and BT-549); assay: in vitro anticancer activity, breast panel; format: cell-based; conditions: Homo sapiens; six breast cancer cell lines, exposure at least 48 h; read-out: GI50, range over panel
[6] = read-out: Growth Inhibition GI50
[7] = read-out: Log10 GI50 (converted)
[8] = Homo sapiens, read-out: Growth Inhibition GI50
[9] = Homo sapiens, read-out: Log10 GI50 (converted)
[10] = Homo sapiens, read-out: Log10 LC50 (converted)
[11] = read-out: Log10 LC50 (converted)

C#Cc1ccc(-n2c(/C=C/c3ccc4ccccc4n3)nc3ncccc3c2=O)cc1 [4t, (E)-3-(4-Ethynylphenyl)-2-(2-(quinolin-2-yl)vinyl)pyrido[2,3-d]pyrimidin-4(3H)-one]
CC50 (CCRF-CEM; CCKF-CEM, read-out: Log10 LC50 (converted)): > 100000 nM
GI50 (CCRF-CEM; [6]): 260 nM
GI50 (CCRF-CEM; [7]): 263 nM
GI50 (K-562; Homo sapiens, K562, K-562, Leukemia, read-out: Growth Inhibition GI50): 330 nM
GI50 (K-562; Homo sapiens, K562, K-562, Leukemia, read-out: Log10 GI50 (converted)): 331 nM
CC50 (K-562; Homo sapiens, K562, K-562, Leukemia, read-out: Log10 LC50 (converted)): > 100000 nM
Log10 TGI50 (K-562; K-562, Leukemia): >−4.00
GI50 (RPMI-8226; [6]): 260 nM
GI50 (RPMI-8226; [7]): 269 nM
Log10 TGI50 (RPMI-8226): −5.99
Log10 TGI50 (A549/ATCC): −5.74
GI50 (A549/ATCC; [8]): 350 nM
GI50 (A549/ATCC; [9]): 355 nM
CC50 (A549/ATCC; [10]): > 100000 nM
Log10 TGI50 (HOP-62): −5.72
GI50 (HOP-62; [6]): 460 nM
GI50 (HOP-62; [7]): 468 nM
Log10 TGI50 (NCI-H23): −5.62
GI50 (NCI-H23; [6]): 700 nM
GI50 (NCI-H23; [7]): 708 nM
Log10 TGI50 (NCI-H522): −6.10
GI50 (NCI-H522; [8]): 270 nM
GI50 (NCI-H522; [9]): 269 nM
CC50 (NCI-H522; [10]): 4900 nM
Log10 TGI50 (M14): −6.18
GI50 (M14; [6]): 260 nM
GI50 (M14; [7]): 263 nM
GI50 (MDA-MB-435; [6]): 190 nM
GI50 (MDA-MB-435; [7]): 195 nM
GI50 (UACC-62; [8]): 390 nM
GI50 (UACC-62; [9]): 398 nM
CC50 (UACC-62; [10]): 9330 nM
Log10 TGI50 (UACC-62): −5.67
GI50 (OVCAR-4; [8]): 330 nM
GI50 (OVCAR-4; [9]): 339 nM
CC50 (OVCAR-4; [10]): > 100000 nM
Log10 TGI50 (OVCAR-4): −5.46
Log10 TGI50 (786-0): −5.88
GI50 (786-0; [6]): 380 nM
GI50 (786-0; [7]): 389 nM
Log10 TGI50 (ACHN): −5.89
GI50 (ACHN; [6]): 320 nM
GI50 (ACHN; [7]): 324 nM
Log10 TGI50 (RXF393): −6.07
GI50 (RXF393; Homo sapiens, RXF 393, read-out: Growth Inhibition GI50): 250 nM
GI50 (RXF393; Homo sapiens, RXF 393, read-out: Log10 GI50 (converted)): 257 nM
CC50 (RXF393; Homo sapiens, RXF 393, read-out: Log10 LC50 (converted)): 5010 nM
GI50 (TK-10; [6]): 430 nM
GI50 (TK-10; [7]): 437 nM
Log10 TGI50 (TK-10): −5.82
GI50 (PC-3; [8]): 340 nM
GI50 (PC-3; [9]): 339 nM
CC50 (PC-3; [10]): > 100000 nM
Log10 TGI50 (PC-3): −5.76
Log10 TGI50 (DU-145): −6.15
GI50 (DU-145; [6]): 280 nM
GI50 (DU-145; [7]): 282 nM
GI50 (MCF7; [6]): 280 nM
GI50 (MCF7; [7]): 288 nM
CC50 (MCF7; [11]): > 100000 nM
Log10 TGI50 (MDA-MB-231/ATCC): −5.93
GI50 (MDA-MB-231/ATCC; [8]): 330 nM
GI50 (MDA-MB-231/ATCC; [9]): 331 nM
CC50 (MDA-MB-231/ATCC; [10]): > 100000 nM
GI50 (HS578T; [6]): 240 nM
GI50 (HS578T; [7]): 240 nM
CC50 (HS578T; [11]): > 100000 nM
Log10 TGI50 (BT-549): −5.87
GI50 (BT-549; [8]): 350 nM
GI50 (BT-549; [9]): 355 nM
CC50 (BT-549; [10]): 5500 nM
GI50 [1]: 3550 to 52800 nM
GI50 [2]: 940 to 5240 nM
GI50 [3]: 2410 to 32300 nM
GI50 [4]: 3870 to 4100 nM
GI50 [5]: 2310 to 11400 nM

Reference: patent US9783537B2, “3-(4-ethylnylphenyl) pyridopyrimidinone compounds and process for preparation thereof useful as potential anticancer agents” (Council of Scientific & Industrial Research, priority 2013, dated 2017)
